Assay results taken from patent US20200061084A1, “USE OF 2AMD AND 2MD TO TREAT FIBROSIS” (WISCONSIN ALUMNI RESEARCH FOUNDATION, priority 2016, published 2020).

Legend:
[1] = tested on: CsA-induced nephrotoxicity; assay: CsA-induced nephrotoxicity in rats, 28 days: weight, serum BUN and creatinine, urinary protein/creatinine ratio, H&E and picrosirius red histology; format: in vivo, Sprague-Dawley male rats; conditions: for Dose sufficient to prevent nephrotoxicity and/or fibrosis without dramatically increasing serum calcium levels: Sprague-Dawley rats; for Picrosirius staining (collagens): kidney sections, birefringence quantified; for Picrosirius staining (collagens) / Serum creatinine / BUN / Urinary protein/creatinine ratio: rats; for Picrosirius staining (collagens) / weight / Serum creatinine / BUN / Urinary protein/creatinine ratio: CsA 20 mg/kg/day, analog 5 ng/kg, daily 28 days; for weight: rats at harvest; for BUN: serum; for Urinary protein/creatinine ratio: spot urine at harvest
Method: Rats were randomly assigned to groups of 6 each. Each animal received daily injections under 2% isofluorane. […] Vitamin D analogs were dissolved in polyethylene glycol, 0.5% ethanol (PEG). […] All rats were provided with food and water ad-libitum as per standard procedure. Animals were dosed daily for 28 days with the last dose given approximately 24 h prior to harvest (except for 5 animals receiving 1,25(OH)2D3 which were dosed 48 h prior to harvest). Animals were placed under anesthesia, urine and blood (aorta) were collected and kidneys removed; rats were euthanized by pneumothorax puncture. Kidneys were sectioned longitudinally with one half placed into 10% formalin and the other half snap frozen into liquid nitrogen. Blood was allowed to clot for about 1 h followed by spinning and removing of serum. Tissues in formalin were embedded in paraffin and sectioned for further study. Serum, urine and frozen kidney tissues were stored at -80° C. […] Serum was analyzed for BUN, creatinine and calcium levels. The BUN and creatinine measurements were performed using IDEXX cartridges measured on a […] Chemistry Analyzer. […] Urine testing to determine protein/creatinine ratio was performed using IDEXX cartridges; protein levels were also measured using BCA protein determination. Kidneys fixed in formalin were embedded in paraffin, sectioned and stained with Hematoxilin/eosin and with pricrosirius red, which stains mostly collagens I and III. Stained sections were imaged on an upright brightfield Nikon microscope with polarizer capabilities to assess the birefringence of the picrosirius-stained collagen fibers. Quantization of staining was carried out using Image J from 5 images obtained at random within the central cortical area and excluding blood vessels. For H&E, the eosin staining (pink) prevalent in native tissue was quantified Data was analyzed using Graphpad Prism software with the standard student t-test or One-way Anova operations.

[2] = Serum calcium levels of rats dosed with CsA and vitamin D analogs (atomic absorption spectroscopy); format: in vivo, Sprague-Dawley male rats
Method: Rats were randomly assigned to groups of 6 each. Each animal received daily injections under 2% isofluorane. […] Vitamin D analogs were dissolved in polyethylene glycol, 0.5% ethanol (PEG). […] All rats were provided with food and water ad-libitum as per standard procedure. Animals were dosed daily for 28 days with the last dose given approximately 24 h prior to harvest (except for 5 animals receiving 1,25(OH)2D3 which were dosed 48 h prior to harvest). Animals were placed under anesthesia, urine and blood (aorta) were collected and kidneys removed; rats were euthanized by pneumothorax puncture. Kidneys were sectioned longitudinally with one half placed into 10% formalin and the other half snap frozen into liquid nitrogen. Blood was allowed to clot for about 1 h followed by spinning and removing of serum. Tissues in formalin were embedded in paraffin and sectioned for further study. Serum, urine and frozen kidney tissues were stored at −80° C.
Serum was analyzed for BUN, creatinine and calcium levels. The BUN and creatinine measurements were performed using IDEXX cartridges measured on a VETTEST Chemistry Analyzer.

[3] = tested on: unilateral ureteral obstruction (UUO) model; assay: Unilateral ureteral obstruction (UUO) model, picrosirius staining of collagen in kidney sections; format: in vivo, Male Sprague-Dawley rats
Source text: The unilateral ureteral obstruction (UUO) model is a surgical model representing a rodent equivalent of acute kidney injury. Obstruction results in marked dilatation of the ureter together with reduced renal blood flow and glomerular filtration.
Male Sprague-Dawley rats weighing approximately 200-350 g were acclimated and fed ad libitum a standard diet (Teklad 8604 or 2018, Harlan, Madison Wis.). Briefly, under 2% isoflurane anesthesia, the left kidney and ureter were exposed through a midline or a flank incision. The ureter was ligated using 5-0 or 6-0 braided silk suture material. The ligated ureter and kidney were returned to the abdominal cavity and the incision was closed in two layers with interrupted sutures and VETBOND tissue adhesive or staples. The right or contralateral kidney was used as a control. Sham operated animals were treated as the UUO animals except their ureter was not ligated (not shown).
Animals were given buprenorphine (0.05 mg/kg) prior to returning them to their cages where they were kept on standard water and chow until sacrifice at the designated times. Animals were euthanized under CO2, following a midline incision blood was collected via cardiac puncture and the kidneys were removed. The midsection of each kidney was placed in 10% formalin for paraffin embedding and histological staining. […]

Compound	Dose sufficient to prevent nephrotoxicity and/or fibrosis without dramatically increasing serum calcium levels [1]	Decrease of BUN compared to the CsA-treated group ([1]; analog at 5 ng/kg)	Mean UPC lower than the mean UPC for the CsA group ([1]; analog at 5 ng/kg)	Picrosirius staining (collagens) [1]	weight [1]	Serum creatinine [1]	BUN [1]	Urinary protein/creatinine ratio [1]	further results
2α-methyl-19-nor-(20S)-1α,25-dihydroxyvitamin D3 [2AMD]	5 ng/kg per day	about 30%	about 74%	1.8	333.8 g	0.36 mg/dL	28 mg/dL	0.2	Collagen content ([1]; 2.5 ng/kg): reduction in collagen content; Decrease of BUN compared to the CsA-treated group ([1]; 2AMD at 10 ng/kg): about 30%; Serum creatinine, normal (below 0.6 mg/dL) or not ([1]; 2AMD at 20 ng/kg): normal in most of the treatment groups except for 2AMD at 20 ng/kg; Eosinophilic tissue (eosin in H&E-stained kidney) compared to the CsA treated group ([1]; CsA + 2AMD 2.5 ng/kg): promoted an increase in eosinophilic tissue; Eosinophilic tissue (eosin in H&E-stained kidney) compared to the CsA treated group ([1]; CsA + 2AMD 5 ng/kg): promoted an increase in eosinophilic tissue; Decrease of the CsA-promoted increase in collagen birefringence (picrosirius red) ([1]; CsA + 2AMD 5 ng/kg, 28 days): about 30%; Drop in weight from the rats' original weights ([1]; CsA + 2AMD 5 ng/kg, day of harvest): 5 g; Fibrosis ([1]; all doses of 2AMD (2.5, 5, 10, 20 ng/kg)): effective at reducing fibrosis; Dose optimal in nephroprotection ([1]; various doses of 2AMD tested): 5 ng/kg rat body weight; Relationship of serum calcium levels with dose ([2]; rat, in vivo): linear relationship with dose; Decrease in collagen content (picrosirius staining) ([3]; 2AMD 5 ng/kg oral daily for 14 days starting on the day of UUO): 3 fold; Decrease in collagen content (picrosirius staining) ([3]; 2AMD 5 ng/kg oral daily, from 7 days prior to UUO to 7 days after UUO (-7+7)): 3 fold
C=C1/C(=C\C=C2/CCC[C@]3(C)[C@@H]([C@H](C)CCCC(C)(C)O)CC[C@@H]23)C[C@@H](O)C[C@@H]1O [1,25(OH)2 D3, 1,25(OH)2D3]									Serum calcium level increase with respect to rats with vehicles or CsA+PEG ([2]; CsA + 1,25(OH)2D3 100 ng/kg, 28 days): about 25%
C=C1[C@H](O)CC(=C/C=C2\CCCC3(C)C2CCC3[C@@H](C)CCCC(C)(C)O)C[C@H]1O (stereo partly drawn) [2MD, 2-methylene-19-nor-(20S)-1α,25-dihydroxyvitamin D3]	5 ng/kg per day	about 30%	about 74%	1.7	317.3 g	0.33 mg/dL	27 mg/dL	0.4	
cyclosporine [CsA + PEG]									Serum Ca ([2]; rats, CsA 20 mg/kg/day, analog 5 ng/kg, daily injection 28 days, blood about 24 h after last dose): 8.7 mg/dL
